Series [1] in a line: Compound cytotoxicity, XTT-based colorimetric assay. The series is classed as cell-based. The following applies: human; uninfected MT2 cells, day 4, XTT assay. On the procedure:
Compound cytotoxicity and the corresponding CC50 values were determined using the same protocol as described in the antiviral assay except that uninfected cells were used. Cytotoxicity was assessed on day 4 in uninfected MT2 cells by using a XTT (2,3-bis[2-Methoxy-4-nitro-5-sulfophenyl]-2H-tetrazolium-5-carboxyanilide inner salt)-based colorimetric assay (Sigma-Aldrich, St Louis, Mo.).

The test system of series [2] is recombinant NL4-3 virus (Renilla luciferase) in MT-2 cells. Put plainly: HIV cell culture assay (antiviral activity, luciferase readout). The format is cell-based. The following applies: Renilla, NL43. On the procedure: HIV cell culture assay—MT-2 cells, 293T cells and the proviral DNA clone of NL4-3 virus were obtained from the NIH AIDS Research and Reference Reagent Program. MT-2 cells were propagated in RPMI 1640 media supplemented with 10% heat inactivated fetal bovine serum (FBS), 100 μg/ml penicillin G and up to 100 units/mL streptomycin. The 293T cells were propagated in DMEM media supplemented with 10% heat inactivated FBS, 100 μg/mL penicillin G and 100 μg/mL streptomycin. A recombinant NL4-3 proviral clone, in which a section of the nef gene was replaced with the Renilla luciferase gene, was used to make the reference virus used in these studies. The recombinant virus was prepared through transfection of the recombinant NL4-3 proviral clone into 293T cells using Transit-293 Transfection Reagent from Mirus Bio LLC (Madison, Wis.). Supernatent was harvested after 2-3 days and the amount of virus present was titered in MT-2 cells using luciferase enzyme activity as a marker by measuring luciferase enzyme activity. Luciferase was quantitated using the EnduRen Live Cell Substrate from Promega (Madison, Wis.). Antiviral activities of compounds toward the recombinant virus were quantified by measuring luciferase activity in MT-2 cells infected for 4-5 days with the recombinant virus in the presence of serial dilutions of the compound.
The 50% effective concentration (EC50) was calculated by using the exponential form of the median effect equation where (Fa)=1/[1+(ED50/drug conc.)m] (Johnson V A, Byington R T. Infectivity Assay. In Techniques in HIV Research. ed. Aldovini A, Walker B D. 71-76. New York: Stockton Press. 1990).

In patent US20220089598A1, “INHIBITORS OF HUMAN IMMUNODEFICIENCY VIRUS REPLICATION” (VIIV HEALTHCARE UK (No. 5) LIMITED, priority 2018, published 2022) one finds CC50 and EC50 data, which are given here for eleven molecules.

SMILES strings stand for the structures. Bounds are passed on as bounds.

One may read the CC50 as the concentration at which the toxic effect on the cells reaches its halfway point. A higher CC50 goes with better tolerance by the cells. As usually defined, the EC50 is the midpoint of the concentration-response curve. As for `Cn1nc(NS(C)(=O)=O)c2c(Cl)ccc(-n3c([C@H](Cc4cc(F)cc(F)c4)NC(=O)Cn4nc(C(F)F)c5c4C(F)(F)[C@@H]4C[C@H]54)nc4nc(-c5cc(F)cc(F)c5)ccc4c3=O)c21` (atropisomer, axis not shown; (P)) [Example 21, N—((S)-1-((3P)-3-(4-chloro-1-methyl-3-(methylsulfonamido)-1H-indazol-7-yl)-7-(3,5-difluorophenyl)-4-oxo-3,4-dihydropyrido[2,3-d]pyrimidin-2-yl)-2-(3,5-difluorophenyl)ethyl)-2-((3bS,4aR)-3-(difluoromethyl)-5,5-difluoro-3b,4,4a,5-tetrahydro-1H-cyclopropa[3,4]cyclopenta[1,2-c]pyrazol-1-yl)acetamide], the CC50 at 4 day in series [1] was > 100 nM. Besides, the EC50 in series [2] stood at 0.08 nM.

For the molecule `Cn1nc(NS(C)(=O)=O)c2c(Cl)ccc(-n3c([C@H](Cc4cc(F)cc(F)c4)NC(=O)Cn4nc(C(F)F)c5c4C(F)(F)[C@@H]4C[C@H]54)nc4cc(-c5ccc(F)cc5F)cnc4c3=O)c21` (atropisomer, axis not shown; (P)) [Example 37, N—((S)-1-((3P)-3-(4-chloro-1-methyl-3-(methylsulfonamido)-1H-indazol-7-yl)-7-(2,4-difluorophenyl)-4-oxo-3,4-dihydropyrido[3,2-d]pyrimidin-2-yl)-2-(3,5-difluorophenyl)ethyl)-2-((3bS,4aR)-3-(difluoromethyl)-5,5-difluoro-3b,4,4a,5-tetrahydro-1H-cyclopropa[3,4]cyclopenta[1,2-c]pyrazol-1-yl)acetamide], in series [1], the CC50 at 4 day is > 500 nM. The EC50 in series [2] was found to be 2 nM.

For the molecule `O=C(Cn1ccc(C2CC2)n1)N[C@@H](Cc1cc(F)cc(F)c1)c1nc2nc(-c3ccccc3F)ccc2c(=O)n1-c1ccc(Cl)c2c(NS(=O)(=O)C3CC3)nn(CC(F)F)c12` (atropisomer, axis not shown; (P)) [Example 35, (S)—N-(1-((3P)-3-(4-chloro-3-(cyclopropanesulfonamido)-1-(2,2-difluoroethyl)-1H-indazol-7-yl)-7-(2-fluorophenyl)-4-oxo-3,4-dihydropyrido[2,3-d]pyrimidin-2-yl)-2-(3,5-difluorophenyl)ethyl)-2-(3-cyclopropyl-1H-pyrazol-1-yl)acetamide], in series [1], the CC50 at 4 day was > 500 nM. Also, in series [2], the EC50 was 0.2 nM.

In the case of `COc1nc2nc([C@H](Cc3cc(F)cc(F)c3)NC(=O)Cn3nc(C(F)(F)F)c4c3C(F)(F)[C@@H]3C[C@H]43)n(-c3ccc(Cl)c4c(NS(C)(=O)=O)nn(C)c34)c(=O)c2cc1-c1ccccc1F` (atropisomer, axis not shown; (P)) [Example 31, N—((S)-1-((3P)-3-(4-chloro-1-methyl-3-(methylsulfonamido)-1H-indazol-7-yl)-6-(2-fluorophenyl)-7-methoxy-4-oxo-3,4-dihydropyrido[2,3-d]pyrimidin-2-yl)-2-(3,5-difluorophenyl)ethyl)-2-((3bS,4aR)-5,5-difluoro-3-(trifluoromethyl)-3b,4,4a,5-tetrahydro-1H-cyclopropa[3,4]cyclopenta[1,2-c]pyrazol-1-yl)acetamide], the CC50 at 4 day in series [1] is > 500 nM. The EC50 in series [2] worked out at 0.16 nM.

In the case of `Cn1nc(NS(C)(=O)=O)c2c(Cl)ccc(-n3c([C@H](Cc4cc(F)cc(F)c4)NC(=O)Cn4nc(C(F)F)c5c4C(F)(F)[C@@H]4C[C@H]54)nc4nc(-c5cccc(S(C)(=O)=O)c5)ccc4c3=O)c21` (atropisomer, axis not shown; (P)) [Example 23, N—((S)-1-((3P)-3-(4-chloro-1-methyl-3-(methylsulfonamido)-1H-indazol-7-yl)-7-(3-(methylsulfonyl)phenyl)-4-oxo-3,4-dihydropyrido[2,3-d]pyrimidin-2-yl)-2-(3,5-difluorophenyl)ethyl)-2-((3bS,4aR)-3-(difluoromethyl)-5,5-difluoro-3b,4,4a,5-tetrahydro-1H-cyclopropa[3,4]cyclopenta[1,2-c]pyrazol-1-yl)acetamide], the CC50 at 4 day in series [1] was > 100 nM. For the same molecule, the EC50 in series [2] is 0.065 nM.

In the case of `Cn1nc(NS(C)(=O)=O)c2c(Cl)ccc(-n3c([C@H](Cc4cc(F)cc(F)c4)NC(=O)Cn4nc(C(F)F)c5c4C(F)(F)[C@@H]4C[C@H]54)nc4nc(-c5ccc(Cl)cc5Cl)ccc4c3=O)c21` (atropisomer, axis not shown; (P)) [Example 25, N—((S)-1-((3P)-3-(4-chloro-1-methyl-3-(methylsulfonamido)-1H-indazol-7-yl)-7-(2,4-dichlorophenyl)-4-oxo-3,4-dihydropyrido[2,3-d]pyrimidin-2-yl)-2-(3,5-difluorophenyl)ethyl)-2-((3bS,4aR)-3-(difluoromethyl)-5,5-difluoro-3b,4,4a,5-tetrahydro-1H-cyclopropa[3,4]cyclopenta[1,2-c]pyrazol-1-yl)acetamide], in series [1], the CC50 at 4 day was > 100 nM. Also, the EC50 in series [2] worked out at 0.42 nM.

`Cn1nc(NS(C)(=O)=O)c2c(Cl)ccc(-n3c([C@H](Cc4cc(F)cc(F)c4)NC(=O)Cn4nc(C(F)F)c5c4C(F)(F)[C@@H]4C[C@H]54)nc4nc(-c5ccc(Cl)cc5F)ccc4c3=O)c21` (atropisomer, axis not shown; (P)) [Example 8, N—((S)-1-((3P)-3-(4-chloro-1-methyl-3-(methylsulfonamido)-1H-indazol-7-yl)-7-(4-chloro-2-fluorophenyl)-4-oxo-3,4-dihydropyrido[2,3-d]pyrimidin-2-yl)-2-(3,5-difluorophenyl)ethyl)-2-((3bS,4aR)-3-(difluoromethyl)-5,5-difluoro-3b,4,4a,5-tetrahydro-1H-cyclopropa[3,4]cyclopenta[1,2-c]pyrazol-1-yl)acetamide]: the CC50 at 4 day in series [1] was > 20000 nM. Further, in series [2], the EC50 was determined as 0.067 nM.

As for `Cn1nc(NS(C)(=O)=O)c2c(Cl)ccc(-n3c([C@H](Cc4cc(F)cc(F)c4)NC(=O)Cn4nc(C(F)F)c5c4C(F)(F)[C@@H]4C[C@H]54)nc4nc(-c5ccccc5F)ccc4c3=O)c21` (atropisomer, axis not shown; (P)) [Example 1, N—((S)-1-((3P)-3-(4-chloro-1-methyl-3-(methylsulfonamido)-1H-indazol-7-yl)-7-(2-fluorophenyl)-4-oxo-3,4-dihydropyrido[2,3-d]pyrimidin-2-yl)-2-(3,5-difluorophenyl)ethyl)-2-((3bS,4aR)-3-(difluoromethyl)-5,5-difluoro-3b,4,4a,5-tetrahydro-1H-cyclopropa[3,4]cyclopenta[1,2-c]pyrazol-1-yl)acetamide], in series [1], the 50% cytotoxic concentration (CC50) at 4 day was > 1000 nM. Further, the EC50 in series [2] was 0.06 nM.

`Cn1nc(NS(C)(=O)=O)c2c(Cl)ccc(-n3c([C@H](Cc4cc(F)cc(F)c4)NC(=O)Cn4nc(C(F)F)c5c4C(F)(F)[C@@H]4C[C@H]54)nc4nc(-c5ccc(F)cc5F)ccc4c3=O)c21` (atropisomer, axis not shown; (P)) [Example 39, N—((S)-1-((3P)-3-(4-chloro-1-methyl-3-(methylsulfonamido)-1H-indazol-7-yl)-7-(2,4-difluorophenyl)-4-oxo-3,4-dihydropyrido[2,3-d]pyrimidin-2-yl)-2-(3,5-difluorophenyl)ethyl)-2-((3bS,4aR)-3-(difluoromethyl)-5,5-difluoro-3b,4,4a,5-tetrahydro-1H-cyclopropa[3,4]cyclopenta[1,2-c]pyrazol-1-yl)acetamide]: the CC50 at 4 day in series [1] is > 500 nM. The EC50 in series [2] was determined as 0.047 nM.

On to `COc1nc2nc([C@H](Cc3cc(F)cc(F)c3)NC(=O)Cn3nc(C(F)F)c4c3C(F)(F)[C@@H]3C[C@H]43)n(-c3ccc(Cl)c4c(NS(C)(=O)=O)nn(C)c34)c(=O)c2cc1-c1ccccc1F` (atropisomer, axis not shown; (P)) [Example 2, N—((S)-1-((3P)-3-(4-chloro-1-methyl-3-(methylsulfonamido)-1H-indazol-7-yl)-6-(2-fluorophenyl)-7-methoxy-4-oxo-3,4-dihydropyrido[2,3-d]pyrimidin-2-yl)-2-(3,5-difluorophenyl)ethyl)-2-((3bS,4aR)-3-(difluoromethyl)-5,5-difluoro-3b,4,4a,5-tetrahydro-1H-cyclopropa[3,4]cyclopenta[1,2-c]pyrazol-1-yl)acetamide], for which the CC50 at 4 day in series [1] is > 1000 nM. The EC50 in series [2] came to 0.25 nM.

As to `CS(=O)(=O)Nc1nn(CC(F)F)c2c(-n3c([C@H](Cc4cc(F)cc(F)c4)NC(=O)Cn4ccc(C5CC5)n4)nc4nc(-c5ccccc5F)ccc4c3=O)ccc(Cl)c12` (atropisomer, axis not shown; (P)) [Example 33, (S)—N-(1-((3P)-3-(4-chloro-1-(2,2-difluoroethyl)-3-(methylsulfonamido)-1H-indazol-7-yl)-7-(2-fluorophenyl)-4-oxo-3,4-dihydropyrido[2,3-d]pyrimidin-2-yl)-2-(3,5-difluorophenyl)ethyl)-2-(3-cyclopropyl-1H-pyrazol-1-yl)acetamide], in series [1], the CC50 at 4 day was > 500 nM. In addition, the EC50 in series [2] stood at 0.15 nM.
